The source made the active and inactive calls. The rule behind the calls is not given here.
Tested on: Rattus norvegicus
Test: Antiinflammatory activity in rat at 20 mg/kg, ip after 10 days by sponge implantation method
Type: functional, organism-based
Design: dose 20 mg/kg

Question: How did the Activity turn out when `CC1=NN(C(=O)Cn2nc(-c3ccc(C)c(C)c3)c3ccccc3c2=O)C(=O)C1` was run?
Answer: Its Activity is “Active”.

Question: How did the Activity turn out when `CCO/C=N/NC(=O)Cn1nc(-c2ccc(C)c(C)c2)c2ccccc2c1=O` was run?
Answer: The Activity was “Active”.

Question: Which Activity does the source give for `Cc1ccc(-c2nn(CC(=O)NNC(=S)NCc3ccccc3)c(=O)c3ccccc23)cc1C` here?
Answer: Its Activity is “Active”.

Question: Which Activity does the source give for `Cc1ccc(-c2nn(CC(=O)N/N=C/NN)c(=O)c3ccccc23)cc1C` here?
Answer: The Activity was “Active”.

Question: With `Cc1ccc(-c2nn(Cc3n[nH]c(=S)o3)c(=O)c3ccccc23)cc1C` as the compound, how does the Activity read?
Answer: Its Activity is “Active”.
